The results in this text go back to US20030190365A1, “Methods for wet granulating azithromycin” (Pfizer Inc., priority 2001, published 2003).

Data set [1] is described as follows: Equilibrium solubility of azithromycin forms in granulating liquids (HPLC-UV).
Method: Equilibrium solubility of several different forms of azithromycin, in typical liquids used in the wet granulation process, were evaluated as follows.
Excess azithromycin was added as a solid into each respective test liquid and mixed by rotation using a Labquake Rotating Mixer® at 7 revolutions per minute (RPM). Duplicate samples were run for each condition. Excess drug material was added to achieve saturation. Once saturation was achieved, the samples were rotated for 48 hours with sampling intervals at 24 and 48 hours. Azithromycin form A was also set up for a 7-day equilibrium solubility analysis to assure equilibrium beyond 48 hours. At each sampling interval, approximately half (1 mL) the sample was transferred into a polyethylene microcentrifuge tube and centrifuged at 15,000 RPM for 20 minutes using the Eppendorf Centrifuge Model # 5403. Following centrifugation, the liquid layer was pipetted and diluted with 0.04 M potassium phosphate dibasic (pH=8): acetonitrile (4:6). Dilutions were made accordingly until the peak area fell into the linear curve range of the standards (0.15 to 1.5 mgA/mL). Samples were run by HPLC (HP-1100 system, Agilent Technologies, Wilmington, Del.) with UV detection at 210 nm. The sample data was calculated by linear regression against the standard curve based on azithromycin form A.
Data set [2] in a line: As-is and tapped density of bulk drug and dried granulations (Van Kel tap density tester). The class given is physicochemical. How it is done:
Form F bulk drug contained soft lumps and was sieved through an 18 mesh (1.0 mm) screen before use. A small-scale granulation process, as described in Example 1, was used for samples of 5 g of bulk drug. The liquid was pipetted in 0.1 to 1.0 mL increments until a granulation was formed, based on visual observations, followed by wet mixing for 3-5 minutes. All three runs formed wet granulations, but the run with water was much less granular than the non-aqueous runs. All of the samples were dried overnight at 40° C. for 16 hours. […] The two nonaqueous liquid runs appeared to be only ˜50% granules, and the water run was only slightly granular.
Samples of the dried granules were then hand sieved through an 18 mesh screen and the density was determined, as shown above in Table 2C. SEM's were taken of dried samples both before and after sieving was done to aid in the evaluation.
A small-scale process, as described in Example 1, was used to granulate the formulations. The ingredients (except for the lubricant), to make a 10 g lot for each run, were pre-blended for 5 minutes on a Turbula Shaker-Mixer (Willy A. Bachofen AG Maschinenfabrik, Basel, Switzerland). The blend was granulated per Example 1. The liquid was pipetted in 0.1 to 1.0 mL increments and mixed for 2.5-6 minutes until a granulation was formed. All of the samples were dried overnight at 40° C. for 16 hours. The amount of densification varied depending on the excipients used in the formulation. […] Tablets were not made from these four granulation runs because of the poor quality.
A small-scale process, as described in Example 1, was used to granulate the formulations into 10 g lots. The liquid was pipetted in 0.1 to 1.0 mL increments and mixed for 2-5 minutes until a granulation was formed. All of the samples were dried overnight at 40° C. for 16 hours in a forced hot air oven and then hand sieved through a 18 mesh (1.0 mm) screen.
A small-scale process, as described in Example 1, was used to granulate the formulations. The granulating liquid was pipetted in 0.1 to 1.0 mL increments and mixed with the 9.3 g of the dry blend for 3-6 minutes until a granulation was formed. The granulating amount, of 30, 27 and 29%, was used for the PVP granulating liquid in ethanol, water and 50:50 ethanol:water, respectively. The amount of liquid used was 2.5-3 mL, therefore the amount of solid (PVP) added in solution based on the 10 g final batch size was from about 0.25 to 0.3%. All of the samples were dried overnight at 40° C. for 16 hours and then hand sieved through a 16 mesh (1.2 mm) screen.
A small-scale process, as described in Example 1, was used to granulate the formulations to make 10 g lots. Each formulation was pre-blended for 5 minutes on a Turbula Shaker-Mixer (Willy A. Bachofen AG Maschinenfabrik, Basel, Switzerland) for 5 minutes. The blend was then granulated as described in Example 1. The liquid was pipetted in 0.1 to 1.0 mL increments and mixed for 4-8 minutes until a granulation was formed. All of the samples were dried overnight at 40° C. for 16 hours and then hand sieved through a 16 mesh (1.2mm) screen. The densities of the granulations were then compared to the bulk drug and to each other. The amount of densification varied depending on the components used in the formulation.

Setting [3] is: 24 hours, EtOH 33% in water v/v.
Where [4] appears, read: 24 hours, EtOH 67% in water v/v.
[5] abbreviates: 48 hours, EtOH 33% in water v/v.
[6] abbreviates: 48 hours, EtOH 67% in water v/v.

On to `CC[C@H]1OC(=O)[C@H](C)[C@@H](O[C@H]2C[C@@](C)(OC)[C@@H](O)[C@H](C)O2)[C@H](C)[C@@H](O[C@@H]2O[C@H](C)C[C@H](N(C)C)[C@H]2O)[C@](C)(O)C[C@@H](C)CN(C)[C@H](C)[C@@H](O)[C@]1(C)O` [form A, 9-deoxo-9a-aza-9a-methyl-9a-homoerythromycin A, reference compound], for which the solubility in data set [1] (setting [3]) stood at 1.30 mgA/mL; in data set [1] (setting [4]), 27.48 mgA/mL; in data set [1] (24 hours, EtOH 100% neat), 219.74 mgA/mL; in data set [1] (24 hours, IPA 33% in water v/v), 5.50 mgA/mL; in data set [1] (24 hours, IPA 67% in water v/v) it was 68.71 mgA/mL; in data set [1] (24 hours, IPA 100% neat), 291.91 mgA/mL. Besides, the solubility in data set [1] (24 hours, water) was found to be 0.10 mgA/mL; in data set [1] (setting [5]), 1.23 mgA/mL; in data set [1] (setting [6]), 27.25 mgA/mL; in data set [1] (48 hours, EtOH 100% neat), 211.59 mgA/mL; in data set [1] (48 hours, IPA 33% in water v/v), 5.25 mgA/mL; in data set [1] (48 hours, IPA 67% in water v/v), 67.70 mgA/mL. The solubility in data set [1] (48 hours, IPA 100% neat) came to 280.91 mgA/mL; in data set [1] (48 hours, water), 0.14 mgA/mL; in data set [1] (7 days, EtOH 33% in water v/v), 1.27 mgA/mL; in data set [1] (7 days, EtOH 67% in water v/v), 27.02 mgA/mL; in data set [1] (7 days, EtOH 100% neat), 214.76 mgA/mL; in data set [1] (7 days, IPA 33% in water v/v), 5.28 mgA/mL. Moreover, the solubility in data set [1] (7 days, IPA 67% in water v/v) is reported as 66.63 mgA/mL; in data set [1] (7 days, IPA 100% neat), 286.45 mgA/mL; in data set [1] (7 days, water), 0.11 mgA/mL. For the same compound, the “solubility in pure water compared to all other forms” value in data set [1] (relative to the other forms) is on record as “approximately one-half”. The “solubility in the isopropanol solutions compared to all other forms” value in data set [1] (relative to the other forms) is recorded as “lower solubility”.

Take `CCC1OC(=O)C(C)C(O[C@H]2C[C@@](C)(OC)[C@@H](O)C(C)O2)C(C)[C@@H](OC2OC(C)CC(N(C)C)[C@H]2O)[C@@](C)(O)C[C@@H](C)CN(C)[C@H](C)[C@@H](O)[C@]1(C)O` (stereo partly drawn) [form F, azithromycin monohydrate hemi-ethanol solvate]: the “As is Density” value in data set [2] (Example 2, form F, Table 2A) was 0.290 g/cc; in data set [2] (Example 2, form F, Table 2C), 0.290 g/cc. The “Tapped Density” value in data set [2] (Example 2, form F, Table 2A, 2000 taps) is 0.439 g/cc; in data set [2] (Example 2, form F, Table 2C), 0.439 g/cc; in data set [2] (Example 3), 0.439 g/cc; in data set [2] (Example 6, form F), 0.439 g/cc; in data set [2] (Example 7, form F) it was 0.439 g/cc. The “As Is Density” value in data set [2] (Example 3) is given as 0.290 g/cc; in data set [2] (Example 6, form F) it was 0.290 g/cc; in data set [2] (Example 7, form F), 0.290 g/cc. Also, the solubility in data set [1] (setting [3]) is reported as 0.98 mgA/mL; in data set [1] (setting [4]), 27.86 mgA/mL; in data set [1] (24 hours, EtOH 100% neat) it was 228.34 mgA/mL; in data set [1] (24 hours, IPA 33% in water v/v) it was 10.04 mgA/mL; in data set [1] (24 hours, IPA 67% in water v/v), 94.09 mgA/mL; in data set [1] (24 hours, IPA 100% neat), 367.02 mgA/mL. Besides, the solubility stood at 0.19 mgA/mL in data set [1] (24 hours, water); 1.06 mgA/mL in data set [1] (setting [5]); 27.56 mgA/mL in data set [1] (setting [6]); 229.87 mgA/mL in data set [1] (48 hours, EtOH 100% neat); 9.41 mgA/mL in data set [1] (48 hours, IPA 33% in water v/v); 79.90 mgA/mL in data set [1] (48 hours, IPA 67% in water v/v). Moreover, the solubility in data set [1] (48 hours, IPA 100% neat) amounted to 362.64 mgA/mL; in data set [1] (48 hours, water) it was 0.21 mgA/mL.

`CC[C@H]1OC(=O)[C@H](C)[C@@H](O[C@H]2C[C@@](C)(OC)[C@@H](O)[C@H](C)O2)[C@H](C)[C@@H](O[C@@H]2O[C@H](C)C[C@H](N(C)C)[C@H]2O)[C@](C)(O)C[C@@H](C)CN(C)[C@H](C)[C@@H](O)[C@]1(C)O` [form G, azithromycin sesquihydrate]: in data set [2] (Example 3, sesquihydrate), the “As Is Density” value is 0.290 g/cc and the “Tapped Density” value is 0.450 g/cc.

Regarding `CCC1OC(=O)C(C)C(O[C@H]2C[C@@](C)(OC)[C@@H](O)C(C)O2)C(C)[C@@H](OC2OC(C)CC(N(C)C)[C@H]2O)[C@@](C)(O)C[C@@H](C)CN(C)[C@H](C)[C@@H](O)[C@]1(C)O` (stereo partly drawn) [form J, azithromycin monohydrate hemi-n-propanol solvate], the “As Is Density” value in data set [2] (Example 3) stood at 0.377 g/cc. Further, the “Tapped Density” value in data set [2] (Example 3) turned out to be 0.649 g/cc. Besides, the solubility is 0.95 mgA/mL in data set [1] (setting [3]); 27.15 mgA/mL in data set [1] (setting [4]); 224.77 mgA/mL in data set [1] (24 hours, EtOH 100% neat); 9.81 mgA/mL in data set [1] (24 hours, IPA 33% in water v/v); 113.05 mgA/mL in data set [1] (24 hours, IPA 67% in water v/v); 315.94 mgA/mL in data set [1] (24 hours, IPA 100% neat). Besides, the solubility amounted to 0.18 mgA/mL in data set [1] (24 hours, water); 0.99 mgA/mL in data set [1] (setting [5]); 26.30 mgA/mL in data set [1] (setting [6]); 208.99 mgA/mL in data set [1] (48 hours, EtOH 100% neat); 9.40 mgA/mL in data set [1] (48 hours, IPA 33% in water v/v); 106.51 mgA/mL in data set [1] (48 hours, IPA 67% in water v/v). Besides, the solubility is reported as 295.88 mgA/mL in data set [1] (48 hours, IPA 100% neat) and 0.22 mgA/mL in data set [1] (48 hours, water).

With `CCC1OC(=O)C(C)C(O[C@H]2C[C@@](C)(OC)[C@@H](O)C(C)O2)C(C)[C@@H](OC2OC(C)CC(N(C)C)[C@H]2O)[C@@](C)(O)C[C@@H](C)CN(C)[C@H](C)[C@@H](O)[C@]1(C)O` (stereo partly drawn) [form M, azithromycin monohydrate hemi-isopropanol solvate], the “As Is Density” value in data set [2] (Example 3) was found to be 0.391 g/cc. In addition, the “Tapped Density” value in data set [2] (Example 3) is recorded as 0.514 g/cc. Also, the solubility is reported as 0.97 mgA/mL in data set [1] (setting [3]); 25.86 mgA/mL in data set [1] (setting [4]); 211.38 mgA/mL in data set [1] (24 hours, EtOH 100% neat); 8.56 mgA/mL in data set [1] (24 hours, IPA 33% in water v/v); 110.67 mgA/mL in data set [1] (24 hours, IPA 67% in water v/v); 333.39 mgA/mL in data set [1] (24 hours, IPA 100% neat). Besides, the solubility amounted to 0.22 mgA/mL in data set [1] (24 hours, water); 1.10 mgA/mL in data set [1] (setting [5]); 27.00 mgA/mL in data set [1] (setting [6]); 222.38 mgA/mL in data set [1] (48 hours, EtOH 100% neat); 8.92 mgA/mL in data set [1] (48 hours, IPA 33% in water v/v); 82.95 mgA/mL in data set [1] (48 hours, IPA 67% in water v/v). In addition, the solubility in data set [1] (48 hours, IPA 100% neat) is 353.19 mgA/mL; in data set [1] (48 hours, water) it was 0.21 mgA/mL; in data set [1] (72 hours, IPA 67% in water v/v) it was 71.35 mgA/mL; in data set [1] (72 hours, IPA 100% neat), 322.55 mgA/mL.

Consider `CC[C@H]1OC(=O)[C@H](C)[C@@H](O[C@H]2C[C@@](C)(OC)[C@@H](O)[C@H](C)O2)[C@H](C)[C@@H](O[C@@H]2O[C@H](C)C[C@H](N(C)C)[C@H]2O)[C@](C)(O)C[C@@H](C)CN(C)[C@H](C)[C@@H](O)[C@]1(C)O` [form N, azithromycin], for which the “As Is Density” value in data set [2] (Example 3) was 0.450 g/cc. Besides, the “Tapped Density” value in data set [2] (Example 3) was found to be 0.600 g/cc. In addition, the solubility stood at 1.06 mgA/mL in data set [1] (setting [3]); 27.33 mgA/mL in data set [1] (setting [4]); 228.14 mgA/mL in data set [1] (24 hours, EtOH 100% neat); 9.23 mgA/mL in data set [1] (24 hours, IPA 33% in water v/v); 113.08 mgA/mL in data set [1] (24 hours, IPA 67% in water v/v); 334.22 mgA/mL in data set [1] (24 hours, IPA 100% neat). The solubility in data set [1] (24 hours, water) is 0.20 mgA/mL; in data set [1] (setting [5]), 1.11 mgA/mL; in data set [1] (setting [6]), 27.20 mgA/mL; in data set [1] (48 hours, EtOH 100% neat), 225.78 mgA/mL; in data set [1] (48 hours, IPA 33% in water v/v) it was 7.36 mgA/mL; in data set [1] (48 hours, IPA 67% in water v/v), 106.48 mgA/mL. Besides, the solubility in data set [1] (48 hours, IPA 100% neat) was 322.91 mgA/mL; in data set [1] (48 hours, water), 0.24 mgA/mL.
